This experiment has as its target T1, AedaeACPR-I (Aedes aegypti, UniProt A0A2L0VBG2).
T1 construct: only the ACPR-I transcript yields a complete receptor protein which we functionally deorphanized; expressed in transfected cells; host or cells: CHO-K1 cells stably expressing aequorin, transient transfection with pcDNA3.1+
T1 sequence (A0A2L0VBG2 1-577): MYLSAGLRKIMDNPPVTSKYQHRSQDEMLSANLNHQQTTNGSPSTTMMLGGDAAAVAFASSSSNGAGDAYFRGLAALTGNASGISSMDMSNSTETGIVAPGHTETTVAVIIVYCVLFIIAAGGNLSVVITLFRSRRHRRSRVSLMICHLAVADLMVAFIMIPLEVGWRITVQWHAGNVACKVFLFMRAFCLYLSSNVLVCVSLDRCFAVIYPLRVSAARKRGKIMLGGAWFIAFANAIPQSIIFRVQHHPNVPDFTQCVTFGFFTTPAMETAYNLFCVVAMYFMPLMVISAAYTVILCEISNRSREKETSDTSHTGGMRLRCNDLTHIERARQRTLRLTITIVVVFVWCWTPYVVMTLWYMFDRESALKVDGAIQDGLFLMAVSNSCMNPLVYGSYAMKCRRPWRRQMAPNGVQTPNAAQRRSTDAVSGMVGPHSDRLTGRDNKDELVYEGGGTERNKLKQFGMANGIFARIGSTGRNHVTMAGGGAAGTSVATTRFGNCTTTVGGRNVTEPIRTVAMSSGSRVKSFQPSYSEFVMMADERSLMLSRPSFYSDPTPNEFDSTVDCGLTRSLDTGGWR
The experiment in a line: Heterologous receptor functional assay (aequorin bioluminescence) in CHO-K1 cells transiently expressing AedaeACPR-I. It is filed as cell-based. To be noted: for Receptor activation (luminescence response): CHO-K1 aequorin cells transiently expressing AedaeACPR-I, doses 10^-12 to 10^-5 M; for EC50: CHOK1-aeq cells transiently expressing AedaeACPR-I, peptide doses 10^-12 to 10^-5 M in quadruplicate, luminescence response, average of multiple independent biological replicates (four independent transfections). The procedure:
Functional activation of AedaeACPR-I was assayed using a previously established cell culture system involving a recombinant Chinese hamster ovary (CHO)-K1 cell line stably expressing aequorin[35]. […] At 48 hours post-transfection, cells were detached from the culture flasks using Dulbecco’s phosphate buffered saline (DPBS; Wisent Corporation, St. Bruno, QC) containing 5 mM EDTA and resuspended in BSA medium (DMEM-F12 media containing 0.1% bovine serum albumin, 1X antimycotic-antibiotic) to a concentration of 10^6–10^7 cells/mL. Coelenterazine h (Promega, Madison, WI, USA) was added to the cells to a final concentration of 5 μM, and incubated for 3 hours in the dark at room temperature on a stirrer set at 200 rpm. The cell suspension was then diluted 10-fold and incubated at room temperature for an additional hour. Serial dilutions of peptide ligands (Table 1) were prepared in BSA medium (10^−5 to 10^−12 M), and loaded in quadruplicates into 96-well luminescence plates (Greiner Bio-One, Germany). All peptides were commercially synthesized (Genscript, Piscataway, NJ) at a purity >90% and were prepared in dimethyl sulfoxide at a stock concentration of 1 mM. Cells were loaded into each well with an automatic injector unit and luminescence was measured for 20 seconds using a Synergy 2 Multi-Mode Microplate Reader (BioTek, Winooski, VT, USA). BSA medium alone was utilized as a negative control and 5 × 10^−5 M ATP was used as a positive control, which acts on endogenously expressed purinoceptors[36],[37]. EC50 values were calculated in GraphPad Prism 7.02 (GraphPad Software, San Diego, USA) from dose-dependent curves from four independent transfections.
A heterologous receptor functional assay involving CHO-K1 cells was used to validate the cloned receptor as a bona fide ACP receptor. […] Our findings in this study are consistent with past reports, since similar binding specificity of ACP receptors has been observed previously in T. castaneum, A. gambiae, and R. prolixus with EC50 values reported in the low nanomolar range[17],[25]. Additionally, previous research in the aforementioned insects have also observed that the AKH receptors are not activated by ACP or corazonin peptides, and similarly, the corazonin receptors are not activated by ACP or AKH peptides[17],[25],[43],[44].
Figure 4 Functional heterologous receptor assay of CHO-K1 aequorin cells transiently expressing the AedaeACPR-I. (a) Dose dependent effect on the bioluminescence response (mean 0–15 s) after the addition of between 10^−12–10^−5 M doses of A. aegypti ACP, AKH and CRZ peptides. Luminescence is normalized to the BSA control and plotted relative to the maximal response (10^−5 M). […] (b) Kinetics of the bioluminescence response measured between 0–5 s, 6–10 s, and 11–20 s time intervals, following the addition of 1 × 10^−6 M of the above peptides normalized to vehicle control (BSA media). Luminescence is normalized to the BSA control and plotted relative to the maximal response (10^−5 M). Data represent the mean ± standard error (n = 4).

“Also recorded” adds a separate entry of the source. Non-standard residues stand in square brackets, D forms with d. Residues, ends and D or L forms follow the SMILES beside them. No end group written: not given here. pGlu = O=C1CC[C@@H](C(=O)O)N1 Some results are limits rather than exact numbers.

For AGNSGANSGMWFGPRL-NH2 [AedaeCAPA-PK1], the EC50 (usually the midpoint of the concentration-response curve) is greater than 10 µM. Further, under “listed as AedaePK1”, the “Receptor activation (luminescence response)” value (“Receptor activation” below) was “no detectable luminescence indicative of receptor activation; also recorded: No receptor activation was detected”.
In the case of `CC(C)C[C@H](NC(=O)[C@@H]1CCC(=O)N1)C(=O)N[C@H](C(=O)N[C@@H](Cc1ccccc1)C(=O)N[C@H](C(=O)N1CCC[C@H]1C(=O)N[C@@H](CO)C(=O)N[C@@H](Cc1c[nH]c2ccccc12)C(N)=O)[C@@H](C)O)[C@@H](C)O` [AedaeAKH] ([pGlu]LTFTPSW-NH2), the “Receptor activation” value was “no detectable luminescence indicative of receptor activation; also recorded: No receptor activation was detected” and the EC50 was greater than 10 µM.
For the compound `CC(C)[C@H](NC(=O)[C@@H]1CCC(=O)N1)C(=O)N[C@H](C(=O)N[C@@H](Cc1ccccc1)C(=O)N[C@@H](CO)C(=O)N[C@@H](CCCNC(=N)N)C(=O)N[C@@H](CC(=O)O)C(=O)N[C@@H](Cc1c[nH]c2ccccc12)C(=O)N[C@@H](CC(N)=O)C(=O)N[C@@H](C)C(N)=O)[C@@H](C)O` [AedaeACP] ([pGlu]VTFSRDWNA-NH2), the EC50 was 0.0103 µM.
Regarding `C[C@@H](O)[C@H](NC(=O)[C@H](CC(N)=O)NC(=O)[C@H](Cc1c[nH]c2ccccc12)NC(=O)CNC(=O)[C@H](CCCNC(=N)N)NC(=O)[C@H](CO)NC(=O)[C@H](Cc1ccc(O)cc1)NC(=O)[C@H](CCC(N)=O)NC(=O)[C@H](Cc1ccccc1)NC(=O)[C@@H](NC(=O)[C@@H]1CCC(=O)N1)[C@@H](C)O)C(=O)N[C@@H](CC(N)=O)C(N)=O` [AedaeCRZ] ([pGlu]TFQYSRGWNTN-NH2), the “Receptor activation” value is “no detectable luminescence indicative of receptor activation; also recorded: No receptor activation was detected”.
GPTVGLFAFPRV-NH2 [AedaeCAPA1]: the “Receptor activation” value is reported as “No receptor activation was detected” and the EC50 is greater than 10 µM. Further, the “Receptor activation” value (listed as AedaeCAPA-1) is recorded as “no detectable luminescence indicative of receptor activation”.

These data come from paper PMC5794978, “Molecular identification, transcript expression, and functional deorphanization of the adipokinetic hormone/corazonin-related peptide receptor in the disease vector, Aedes aegypti” (Scientific Reports, 2018).
